The text below walks through data of patent US10189816B2, “Substituted pyridines as inhibitors of human immunodeficiency virus replication” (priority 2015, dated 2019).

This test concerns NL-RLuc virus. As to the kind of experiment: Inhibition of HIV replication (NL-RLuc reporter virus in MT-2 cells, luciferase readout). It counts as cell-based. The conditions noted are these: Human immunodeficiency virus 1, MT2, 120 h. In outline:
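Antiviral EC50 came from luciferase signal after 5-day multicycle replication of NL-RLuc virus in MT-2 cells with serially diluted compound (RPMI 1640, 10% heat-inactivated FBS), fitted by the median effect equation over at least 2 experiments.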

Read-outs that look alike come from different tables or passages of the source. Where only a bound is given, the exact number is not on record here.

As to `Cc1nc(C)c([C@H](OC(C)(C)C)C(=O)O)c(N2CCC(C)(C)CC2)c1-c1ccc2c(c1)CCN(Cc1c(Cl)cccc1Cl)C2` [Compound 128, (S)-2-(tert-butoxy)-2-(5-(2-(2,6-dichlorobenzyl)-1,2,3,4-tetrahydroisoquinolin-6-yl)-4-(4,4-dimethylpiperidin-1-yl)-2,6-dimethylpyridin-3-yl)acetic acid], where the note is “read-out: Activity”, the EC50 was < 0.1 µM.

For the molecule `COc1cccc(CN2CCc3cc(-c4c(C)nc(C)c([C@H](OC(C)(C)C)C(=O)O)c4N4CCC(C)(C)CC4)ccc3C2)c1Cl` [Compound 129, (S)-2-(tert-butoxy)-2-(5-(2-(2-chloro-3-methoxybenzyl)-1,2,3,4-tetrahydroisoquinolin-6-yl)-4-(4,4-dimethylpiperidin-1-yl)-2,6-dimethylpyridin-3-yl)acetic acid], the EC50 (read-out: Activity) was < 0.1 µM and the EC50 (read-out: EC50 μM) came to 0.003 µM. As for `Cc1nc(C)c([C@H](OC(C)(C)C)C(=O)O)c(N2CCC(C)(C)CC2)c1-c1ccc2c(c1)CCN(Cc1cccc(Cl)c1F)C2` [Compound 130, (S)-2-(tert-butoxy)-2-(5-(2-(3-chloro-2-fluorobenzyl)-1,2,3,4-tetrahydroisoquinolin-6-yl)-4-(4,4-dimethylpiperidin-1-yl)-2,6-dimethylpyridin-3-yl)acetic acid], for the setting “read-out: Activity”, the EC50 was < 0.1 µM. Same read-out and setting: the value for `Cc1cc(Cl)ccc1CN1CCc2cc(-c3c(C)nc(C)c([C@H](OC(C)(C)C)C(=O)O)c3N3CCC(C)(C)CC3)ccc2C1` [Compound 131, (S)-2-(tert-butoxy)-2-(5-(2-(4-chloro-2-methylbenzyl)-1,2,3,4-tetrahydroisoquinolin-6-yl)-4-(4,4-dimethylpiperidin-1-yl)-2,6-dimethylpyridin-3-yl)acetic acid] was < 0.1 µM.

Consider `Cc1ccc(CN2CCc3cc(-c4c(C)nc(C)c([C@H](OC(C)(C)C)C(=O)O)c4N4CCC(C)(C)CC4)ccc3C2)cc1Cl` [Compound 132, (S)-2-(tert-butoxy)-2-(5-(2-(3-chloro-4-methylbenzyl)-1,2,3,4-tetrahydroisoquinolin-6-yl)-4-(4,4-dimethylpiperidin-1-yl)-2,6-dimethylpyridin-3-yl)acetic acid], for which the EC50 (read-out: Activity) was < 0.1 µM. For `Cc1ccc(Cl)cc1CN1CCc2cc(-c3c(C)nc(C)c([C@H](OC(C)(C)C)C(=O)O)c3N3CCC(C)(C)CC3)ccc2C1` [Compound 133, (S)-2-(tert-butoxy)-2-(5-(2-(5-chloro-2-methylbenzyl)-1,2,3,4-tetrahydroisoquinolin-6-yl)-4-(4,4-dimethylpiperidin-1-yl)-2,6-dimethylpyridin-3-yl)acetic acid], under “read-out: Activity”, the EC50 is < 0.1 µM. For the molecule `Cc1cc(CN2CCc3cc(-c4c(C)nc(C)c([C@H](OC(C)(C)C)C(=O)O)c4N4CCC(C)(C)CC4)ccc3C2)ccc1Cl` [Compound 134, (S)-2-(tert-butoxy)-2-(5-(2-(4-chloro-3-methylbenzyl)-1,2,3,4-tetrahydroisoquinolin-6-yl)-4-(4,4-dimethylpiperidin-1-yl)-2,6-dimethylpyridin-3-yl)acetic acid], the EC50 was < 0.1 µM (read-out: Activity) and 0.012 µM (read-out: EC50 μM). `Cc1nc(C)c([C@H](OC(C)(C)C)C(=O)O)c(N2CCC(C)(C)CC2)c1-c1ccc2c(c1)CCN(Cc1c(F)cc(Cl)cc1F)C2` [Compound 135, (S)-2-(tert-butoxy)-2-(5-(2-(4-chloro-2,6-difluorobenzyl)-1,2,3,4-tetrahydroisoquinolin-6-yl)-4-(4,4-dimethylpiperidin-1-yl)-2,6-dimethylpyridin-3-yl)acetic acid]: the EC50 (read-out: Activity) was < 0.1 µM. Take `Cc1nc(C)c([C@H](OC(C)(C)C)C(=O)O)c(N2CCC(C)(C)CC2)c1-c1ccc2c(c1)CCN(Cc1c(F)cccc1Cl)C2` [Compound 136, (S)-2-(tert-butoxy)-2-(5-(2-(2-chloro-6-fluorobenzyl)-1,2,3,4-tetrahydroisoquinolin-6-yl)-4-(4,4-dimethylpiperidin-1-yl)-2,6-dimethylpyridin-3-yl)acetic acid]: the EC50 (read-out: Activity) was < 0.1 µM. Still for that read-out and setting: in the case of `COc1ccc(CN2CCc3cc(-c4c(C)nc(C)c([C@H](OC(C)(C)C)C(=O)O)c4N4CCC(C)(C)CC4)ccc3C2)cc1Cl` [Compound 137, (S)-2-(tert-butoxy)-2-(5-(2-(3-chloro-4-methoxybenzyl)-1,2,3,4-tetrahydroisoquinolin-6-yl)-4-(4,4-dimethylpiperidin-1-yl)-2,6-dimethylpyridin-3-yl)acetic acid] it was < 0.1 µM; in that of `COc1cc(CN2CCc3cc(-c4c(C)nc(C)c([C@H](OC(C)(C)C)C(=O)O)c4N4CCC(C)(C)CC4)ccc3C2)ccc1Cl` [Compound 138, (S)-2-(tert-butoxy)-2-(5-(2-(4-chloro-3-methoxybenzyl)-1,2,3,4-tetrahydroisoquinolin-6-yl)-4-(4,4-dimethylpiperidin-1-yl)-2,6-dimethylpyridin-3-yl)acetic acid], < 0.1 µM. For `COc1ccc(C(C)C)cc1CN1CCc2cc(-c3c(C)nc(C)c([C@H](OC(C)(C)C)C(=O)O)c3N3CCC(C)(C)CC3)ccc2C1` [Compound 139, (S)-2-(tert-butoxy)-2-(4-(4,4-dimethylpiperidin-1-yl)-5-(2-(5-isopropyl-2-methoxybenzyl)-1,2,3,4-tetrahydroisoquinolin-6-yl)-2,6-dimethylpyridin-3-yl)acetic acid], the EC50 runs as follows: (read-out: Activity) < 0.1 µM; (read-out: EC50 μM) 0.03 µM. In the case of `COc1cc(CN2CCc3cc(-c4c(C)nc(C)c([C@H](OC(C)(C)C)C(=O)O)c4N4CCC(C)(C)CC4)ccc3C2)ccc1C` [Compound 140, (S)-2-(tert-butoxy)-2-(4-(4,4-dimethylpiperidin-1-yl)-5-(2-(3-methoxy-4-methylbenzyl)-1,2,3,4-tetrahydroisoquinolin-6-yl)-2,6-dimethylpyridin-3-yl)acetic acid], the EC50 (read-out: Activity) is < 0.1 µM. Same read-out and setting: in the case of `COc1ccc(CN2CCc3cc(-c4c(C)nc(C)c([C@H](OC(C)(C)C)C(=O)O)c4N4CCC(C)(C)CC4)ccc3C2)cc1C` [Compound 141, (S)-2-(tert-butoxy)-2-(4-(4,4-dimethylpiperidin-1-yl)-5-(2-(4-methoxy-3-methylbenzyl)-1,2,3,4-tetrahydroisoquinolin-6-yl)-2,6-dimethylpyridin-3-yl)acetic acid] it was < 0.1 µM. As to `COc1c(F)cccc1CN1CCc2cc(-c3c(C)nc(C)c([C@H](OC(C)(C)C)C(=O)O)c3N3CCC(C)(C)CC3)ccc2C1` [Compound 142, (S)-2-(tert-butoxy)-2-(4-(4,4-dimethylpiperidin-1-yl)-5-(2-(3-fluoro-2-methoxybenzyl)-1,2,3,4-tetrahydroisoquinolin-6-yl)-2,6-dimethylpyridin-3-yl)acetic acid], the EC50 (read-out: Activity) was < 0.1 µM. The same measure, in the same setting: in the case of `COc1ccc(CN2CCc3cc(-c4c(C)nc(C)c([C@H](OC(C)(C)C)C(=O)O)c4N4CCC(C)(C)CC4)ccc3C2)cc1C(C)C` [Compound 143, (S)-2-(tert-butoxy)-2-(4-(4,4-dimethylpiperidin-1-yl)-5-(2-(3-isopropyl-4-methoxybenzyl)-1,2,3,4-tetrahydroisoquinolin-6-yl)-2,6-dimethylpyridin-3-yl)acetic acid] it was < 0.1 µM. Consider `Cc1nc(C)c([C@H](OC(C)(C)C)C(=O)O)c(N2CCC(C)(C)CC2)c1-c1ccc2c(c1)CCN(Cc1c(O)cc(F)cc1F)C2` [Compound 144, (S)-2-(tert-butoxy)-2-(5-(2-(2,4-difluoro-6-hydroxybenzyl)-1,2,3,4-tetrahydroisoquinolin-6-yl)-4-(4,4-dimethylpiperidin-1-yl)-2,6-dimethylpyridin-3-yl)acetic acid], for which the EC50 was < 0.1 µM (read-out: Activity) and 0.008 µM (read-out: EC50 μM). `COc1cccc(Cl)c1CN1CCc2cc(-c3c(C)nc(C)c([C@H](OC(C)(C)C)C(=O)O)c3N3CCC(C)(C)CC3)ccc2C1` [Compound 145, (S)-2-(tert-butoxy)-2-(5-(2-(2-chloro-6-methoxybenzyl)-1,2,3,4-tetrahydroisoquinolin-6-yl)-4-(4,4-dimethylpiperidin-1-yl)-2,6-dimethylpyridin-3-yl)acetic acid]: under “read-out: Activity”, the EC50 is < 0.1 µM. As to `COc1ccc(CN2CCc3cc(-c4c(C)nc(C)c([C@H](OC(C)(C)C)C(=O)O)c4N4CCC(C)(C)CC4)ccc3C2)c(F)c1` [Compound 146, (S)-2-(tert-butoxy)-2-(4-(4,4-dimethylpiperidin-1-yl)-5-(2-(2-fluoro-4-methoxybenzyl)-1,2,3,4-tetrahydroisoquinolin-6-yl)-2,6-dimethylpyridin-3-yl)acetic acid], the EC50 (read-out: Activity) was < 0.1 µM.

Consider `COc1ccc(CN2CCc3cc(-c4c(C)nc(C)c([C@H](OC(C)(C)C)C(=O)O)c4N4CCC(C)(C)CC4)ccc3C2)c(C)c1C` [Compound 147, (S)-2-(tert-butoxy)-2-(4-(4,4-dimethylpiperidin-1-yl)-5-(2-(4-methoxy-2,3-dimethylbenzyl)-1,2,3,4-tetrahydroisoquinolin-6-yl)-2,6-dimethylpyridin-3-yl)acetic acid], for which the EC50 (read-out: Activity) is < 0.1 µM.

Turning to `COc1cc(C)c(CN2CCc3cc(-c4c(C)nc(C)c([C@H](OC(C)(C)C)C(=O)O)c4N4CCC(C)(C)CC4)ccc3C2)cc1C` [Compound 148, (S)-2-(tert-butoxy)-2-(4-(4,4-dimethylpiperidin-1-yl)-5-(2-(4-methoxy-2,5-dimethylbenzyl)-1,2,3,4-tetrahydroisoquinolin-6-yl)-2,6-dimethylpyridin-3-yl)acetic acid], where the note is “read-out: Activity”, the EC50 is < 0.1 µM.

Take `CCOc1ccc(CN2CCc3cc(-c4c(C)nc(C)c([C@H](OC(C)(C)C)C(=O)O)c4N4CCC(C)(C)CC4)ccc3C2)cc1` [Compound 149, (S)-2-(tert-butoxy)-2-(4-(4,4-dimethylpiperidin-1-yl)-5-(2-(4-ethoxybenzyl)-1,2,3,4-tetrahydroisoquinolin-6-yl)-2,6-dimethylpyridin-3-yl)acetic acid]: the EC50 (read-out: Activity) is < 0.1 µM. On to `Cc1nc(C)c([C@H](OC(C)(C)C)C(=O)O)c(N2CCC(C)(C)CC2)c1-c1ccc2c(c1)CCN(Cc1ccc(OC(C)C)cc1)C2` [Compound 150, (S)-2-(tert-butoxy)-2-(4-(4,4-dimethylpiperidin-1-yl)-5-(2-(4-isopropoxybenzyl)-1,2,3,4-tetrahydroisoquinolin-6-yl)-2,6-dimethylpyridin-3-yl)acetic acid], for which the EC50 reads like this: (read-out: Activity) < 0.1 µM; (read-out: EC50 μM) 0.021 µM.
